From US20240300934A1, “COMPOUNDS FOR MODULATING MYCOBACTERIUM TUBERCULOSIS RESPONSE” (priority 2021, published 2024)

Key:
Mtb [1] = assay: Mtb growth assay in cholesterol media (OD600); assay type: cell-based, Mycobacterium tuberculosis
Vero cells = assay: Vero cell toxicity assay; assay type: cell-based, African green monkey; conditions: 72 h
Experimental: Vero cells (African green monkey kidney epithelial cells; ATCC CCL-81) were maintained in DMEM+10% FBS. For the cell toxicity assay, Vero cells were plated at 1×10^5 cells/well in a 96-well plate and incubated for 2-3 h to allow cells to settle. The test compound was dissolved in DMSO at a final concentration of 12 mg/ml. The test compound solution was then added to plated cells, resulting in final test concentrations of 50 to 0.78 μg/ml, with each concentration tested at least in duplicate. To evaluate […] cell viability, 20 μl of a 1:20 MTS:PMS reagent (Promega CellTiter 96 AQueous non-radioactive cell proliferation assay kit) was added to each well after 72 h of incubation at 37° C. and the plate then incubated for an additional 3 h. Absorbance at 490 nm was read on a Molecular Devices SpectraMax M5 microplate reader. The CC50 (the minimal amount of compound that inhibited Vero cell growth by 50%) was extrapolated by plotting absorbance at 490 nm versus the […].

[2] = Mouse plasma protein binding; assay type: in vitro ADME
[3] = tested on: Mtb in bone marrow-derived macrophages (BMDMs); assay: Mtb growth in primary murine bone marrow-derived macrophages (CFU); assay type: cell-based, Mycobacterium tuberculosis; conditions: 10 μM; added 2 hrs post-infection; eight-day time-course
Experimental: C57BL/6J wild type mice (Jackson Laboratories) were used for extraction of bone marrow-derived macrophages. Cells were harvested and expanded in DMEM containing 10% FBS, 15% L-cell conditioned media, 2 mM L-glutamine, 1 mM sodium pyruvate, and penicillin/streptomycin as needed in a 37° C. incubator in a 5% CO2 atmosphere. […] Macrophages were lysed with water containing 0.01% sodium dodecyl sulfate and a dilution series of the samples plated on 7H10 agar for CFU determination.

Mtb [4] = assay: C3HeB/FeJ murine Mtb infection model; assay type: in vivo, C3HeB/FeJ mice
Experimental: C3HeB/FeJ wild type mice (Jackson Laboratories) were infected intranasally with 10^3 CFUs of Mtb (35 μl), under light anesthesia with 2% isoflurane (MacGilvary et al, 2019; Sukumar et al, 2014; Tan et al, 2013). […] The next day the suspension was homogenized by bead beating with 5 mm steel beads in a TOMY microtube mixer (2×20 s), and stored at 4° C. until use. […] Administration began at two or six weeks post-infection as indicated. At time of sacrifice, the left lobe and accessory right lobe of the lung were homogenized in PBS+0.05% Tween 80 and serial dilutions plated on 7H10 agar plates with 100 μg/ml cycloheximide for bacterial load determination. The remaining three right lobes were fixed in 4% PFA in PBS. One lobe was used for histological analysis by standard hematoxylin and eosin (H&E) staining (Tufts Comparative Pathology Services). A Nikon Eclipse E400 with a SPOT insight color digital camera was used to image the histology samples.

Mtb [5] = conditions: PubChem AID 1259343, SID 340463129; cited from earlier work
[6] = Human liver microsomal stability; assay type: in vitro ADME
Human plasma stability = assay type: in vitro ADME; conditions: after 5 h incubation
Experimental: Assays examining mouse and human liver microsomal stability, kinetic aqueous solubility, mouse and human plasma protein binding and stability, and human cytochrome P450 inhibition characteristics of the compounds were run by BioDuro, Incorporated, using standard protocols as previously described (Wang et al, 2020). hERG inhibition assays were also performed by BioDuro, Incorporated.

human CYP 450 1A2 = target: T1, human CYP 450 1A2 (Homo sapiens, UniProt P05177); assay: Human cytochrome P450 inhibition, 1A2; assay type: in vitro ADME; conditions: 10 μM
T1 sequence (P05177 1-516): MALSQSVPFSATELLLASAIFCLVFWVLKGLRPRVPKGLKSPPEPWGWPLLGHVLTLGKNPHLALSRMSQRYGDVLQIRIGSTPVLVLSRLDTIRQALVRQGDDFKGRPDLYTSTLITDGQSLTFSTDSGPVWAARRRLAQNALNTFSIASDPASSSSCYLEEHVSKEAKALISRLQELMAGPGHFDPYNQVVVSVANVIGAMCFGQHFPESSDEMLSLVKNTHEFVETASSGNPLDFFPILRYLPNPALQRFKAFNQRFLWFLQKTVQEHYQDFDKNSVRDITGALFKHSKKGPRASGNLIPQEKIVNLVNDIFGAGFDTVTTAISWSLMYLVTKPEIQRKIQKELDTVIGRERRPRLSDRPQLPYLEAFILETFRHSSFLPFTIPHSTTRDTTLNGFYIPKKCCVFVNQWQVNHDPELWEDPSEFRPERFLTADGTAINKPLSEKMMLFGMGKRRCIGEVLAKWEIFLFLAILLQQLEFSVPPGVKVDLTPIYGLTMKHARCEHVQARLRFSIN

human CYP 450 2C19 = human CYP 450 2C19 (Homo sapiens, UniProt P33261); assay: Human cytochrome P450 inhibition, 2C19; assay type: in vitro ADME; conditions: 10 μM
human CYP 450 2D6 = human CYP 450 2D6 (Homo sapiens, UniProt P10635); assay: Human cytochrome P450 inhibition, 2D6; assay type: in vitro ADME; conditions: 10 μM
[7] = 250 mg/kg oral gavage 5 times a week for 2 weeks, started 2 weeks post-infection
[8] = 250 mg/kg oral gavage for two or four weeks, started 6 weeks post-infection

Sequence of human CYP 450 2D6 (P10635 whole entry): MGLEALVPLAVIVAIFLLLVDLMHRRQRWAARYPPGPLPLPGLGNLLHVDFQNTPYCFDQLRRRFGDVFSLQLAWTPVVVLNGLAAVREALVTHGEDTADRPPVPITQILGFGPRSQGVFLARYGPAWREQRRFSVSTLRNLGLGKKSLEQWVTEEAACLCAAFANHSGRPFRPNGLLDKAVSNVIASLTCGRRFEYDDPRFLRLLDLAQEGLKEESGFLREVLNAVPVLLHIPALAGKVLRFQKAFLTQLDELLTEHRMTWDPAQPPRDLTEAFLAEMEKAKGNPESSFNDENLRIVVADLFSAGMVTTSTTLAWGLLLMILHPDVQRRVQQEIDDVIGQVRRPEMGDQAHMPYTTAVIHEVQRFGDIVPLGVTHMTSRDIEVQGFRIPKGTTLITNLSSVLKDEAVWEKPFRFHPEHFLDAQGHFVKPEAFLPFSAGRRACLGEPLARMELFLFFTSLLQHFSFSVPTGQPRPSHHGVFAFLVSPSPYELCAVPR
Sequence of human CYP 450 2C19 (P33261 whole entry): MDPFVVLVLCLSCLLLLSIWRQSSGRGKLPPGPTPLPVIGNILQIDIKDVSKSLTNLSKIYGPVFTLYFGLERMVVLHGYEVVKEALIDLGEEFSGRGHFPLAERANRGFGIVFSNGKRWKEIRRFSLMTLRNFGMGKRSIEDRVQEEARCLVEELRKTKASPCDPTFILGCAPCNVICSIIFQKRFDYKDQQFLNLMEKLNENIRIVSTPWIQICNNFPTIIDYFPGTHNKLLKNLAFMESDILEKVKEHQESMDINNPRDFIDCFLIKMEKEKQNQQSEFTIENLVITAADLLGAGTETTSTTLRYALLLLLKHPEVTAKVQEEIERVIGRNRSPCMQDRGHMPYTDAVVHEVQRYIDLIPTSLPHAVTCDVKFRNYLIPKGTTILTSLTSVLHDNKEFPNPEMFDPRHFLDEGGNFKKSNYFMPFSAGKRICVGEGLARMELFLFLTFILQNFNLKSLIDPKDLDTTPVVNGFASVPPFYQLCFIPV

CCSc1ncc(CN2CCN(c3nc4ccccc4o3)CC2)cn1 [Compound C6, 2-(4-((2-(ethylthio)pyrimidin-5-yl)methyl)piperazin-1-yl)benzo[d]oxazole]
effect of even chain fatty acids on growth inhibition in cholesterol media (Mtb [1]; 10 μM, 4 mM acetate or 200 μM stearate): rescue inhibition
Mtb growth in cholesterol media (in words) (Mtb [1]; 10 μM, OD600): inhibited Mtb growth in cholesterol media
effect of odd chain fatty acids on growth inhibition in cholesterol media (Mtb [1]; 10 μM, additional odd chain carbon source): do not rescue inhibition
effect of vitamin B12 on growth inhibition in cholesterol media (Mtb [1]; 10 μM, vitamin B12 added): does not rescue inhibition
Growth inhibition in cholesterol media phenotype (Mtb [1]; compared to C6): Y
CC50 (minimum compound concentration to inhibit cell growth by 50%) (Vero cells): > 50 µg/mL
protein binding to mouse plasma [2]: 97.0%
Mtb bacterial load / growth in primary murine BMDM (in words) [3]: significant decrease in bacterial load
Mtb growth in lungs (CFU), short-term infection (Mtb [4]; [7]): significantly inhibited Mtb growth in the mice lungs
lung histology, short-term infection (Mtb [4]; [7]): less cellular infiltration
lung bacterial load, longer-term infection (Mtb [4]; [8]): significant decrease in bacterial load
lung histopathology, longer-term infection (Mtb [4]; [8]): improved histopathology
growth inhibition call in previous cholesterol media screen (Mtb [5]): positive for growth inhibition
t1/2 in human liver microsomes [6]: 37.6 min
stability in human plasma, % remaining (Human plasma stability): 94.6%
% inhibition of CYP 1A2 (human CYP 450 1A2): < 1%
% inhibition of CYP 2C19 (human CYP 450 2C19): 30.3%
% inhibition of CYP 2D6 (human CYP 450 2D6): 10.5%
